According to ChEMBL document CHEMBL1201862, “PubChem BioAssay data set” (2004):
Calls of active or inactive are those of the source.

Experiments:
Beta-lactamase [1] = molecular target: Beta-lactamase (Salmonella choleraesuis (strain SC-B67), UniProt Q5J463)
[2] = molecular target: T1, Small ubiquitin-related modifier 1 (Homo sapiens, UniProt P63165); assay: inhibitors of SUMO1 peptide binding, dose response, biochemical, fluorescence polarization, uHTS hits (AID 624382); assay type: functional; conditions: read-out: IC50_Mean
T1 sequence (P63165 whole entry): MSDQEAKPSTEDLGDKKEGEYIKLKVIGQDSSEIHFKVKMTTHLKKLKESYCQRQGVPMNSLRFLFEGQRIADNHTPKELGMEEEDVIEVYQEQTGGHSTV

[3] = molecular target: T1, Small ubiquitin-related modifier 1; assay: inhibitors of SUMO1 partner interactions, dose response, biochemical, FRET (AID 624383); assay type: functional; conditions: read-out: IC50_Mean
Beta-lactamase [4] = molecular target: Beta-lactamase (Pseudomonas aeruginosa, UniProt Q79MP6);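 further: biochemical dose-response test of metallo-beta-lactamase enzyme inhibition, read out by epi-absorbance; purified recombinant IMP-1 metallo-beta-lactamase with nitrocefin as substrate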
Beta-lactamase (Pseudomonas aeruginosa, UniProt Q79MP6), sequence (Q79MP6 whole entry): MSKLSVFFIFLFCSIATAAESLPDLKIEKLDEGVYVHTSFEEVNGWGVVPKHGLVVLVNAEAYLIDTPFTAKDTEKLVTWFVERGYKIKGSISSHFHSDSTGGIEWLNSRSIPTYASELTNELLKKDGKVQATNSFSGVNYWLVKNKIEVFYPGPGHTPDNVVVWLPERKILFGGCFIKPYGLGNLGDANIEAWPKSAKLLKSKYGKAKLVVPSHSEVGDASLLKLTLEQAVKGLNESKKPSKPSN

Vero = assay: Vero cell toxicity, dose response, cytotoxicity control, plate reader, cherry-pick samples (AID 687020); assay type: functional, cell-based; conditions: Chlorocebus sabaeus
[5] = HepG2 cell cytotoxicity, dose response, cytotoxicity control for Shn3 inhibitor project, CellTiter-Glo, cherry-picked (AID 624134); assay type: functional, cell-based
[6] = control 3'UTR Renilla luciferase suppression, dose response, counter-screen for Shn3 inhibitor project, cell-based, Clone20-Shn3RL, cherry-picked (AID 624133); assay type: functional
[7] = molecular target: Photoreceptor-specific nuclear receptor (Homo sapiens, UniProt Q9Y5X4); assay type: functional, cell-based;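 further: CHO-S cells with Gal4-NCOR and VP16-NR2E3 two-hybrid luciferase reporter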
Photoreceptor-specific nuclear receptor, sequence (Q9Y5X4 whole entry, the tested form may be a part): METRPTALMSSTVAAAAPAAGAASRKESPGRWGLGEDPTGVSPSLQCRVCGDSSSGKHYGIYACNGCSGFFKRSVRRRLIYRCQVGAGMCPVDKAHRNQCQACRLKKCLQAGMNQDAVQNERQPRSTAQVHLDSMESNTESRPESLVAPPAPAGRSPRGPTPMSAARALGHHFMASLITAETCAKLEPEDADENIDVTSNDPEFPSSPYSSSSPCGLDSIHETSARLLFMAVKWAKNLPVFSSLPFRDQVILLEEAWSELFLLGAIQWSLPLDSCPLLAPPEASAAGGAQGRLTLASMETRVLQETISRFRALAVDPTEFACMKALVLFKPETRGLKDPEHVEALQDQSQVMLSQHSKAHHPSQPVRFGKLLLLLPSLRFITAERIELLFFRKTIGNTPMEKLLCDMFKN

[8] = Shn3 3'UTR reporter inhibitors, dose response, cell-based, Clone20 osteoblasts, firefly luciferase, cherry-picked (AID 624132); assay type: functional;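 further: firefly luciferase luminescence from reporter carrying the Shn3 3'UTR in osteoblasts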
[9] = Fluorescence-based cell-based high throughput dose response assay for inhibitors of the interaction of nucleotide-binding oligomerization domain containing 2 (NOD2) and the receptor-interacting serine-threonine kinase 2 (RIPK2).; assay type: functional; conditions: Homo sapiens
[10] = StAR promoter reporter inhibition counter-screen, dose response, counter-screen for LRH-1 inverse agonist project, cell-based, luminescence, luciferase reporter (AID 651969); assay type: functional
[11] = molecular target: Nuclear receptor subfamily 5 group A member 2 (Homo sapiens, UniProt O00482); assay type: functional, cell-based;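 further: HEK293T cells transfected with LRH-1 and a StAR promoter luciferase reporter; potency for inhibitors that lower LRH-1 driven reporter light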
Nuclear receptor subfamily 5 group A member 2, sequence (O00482 whole entry): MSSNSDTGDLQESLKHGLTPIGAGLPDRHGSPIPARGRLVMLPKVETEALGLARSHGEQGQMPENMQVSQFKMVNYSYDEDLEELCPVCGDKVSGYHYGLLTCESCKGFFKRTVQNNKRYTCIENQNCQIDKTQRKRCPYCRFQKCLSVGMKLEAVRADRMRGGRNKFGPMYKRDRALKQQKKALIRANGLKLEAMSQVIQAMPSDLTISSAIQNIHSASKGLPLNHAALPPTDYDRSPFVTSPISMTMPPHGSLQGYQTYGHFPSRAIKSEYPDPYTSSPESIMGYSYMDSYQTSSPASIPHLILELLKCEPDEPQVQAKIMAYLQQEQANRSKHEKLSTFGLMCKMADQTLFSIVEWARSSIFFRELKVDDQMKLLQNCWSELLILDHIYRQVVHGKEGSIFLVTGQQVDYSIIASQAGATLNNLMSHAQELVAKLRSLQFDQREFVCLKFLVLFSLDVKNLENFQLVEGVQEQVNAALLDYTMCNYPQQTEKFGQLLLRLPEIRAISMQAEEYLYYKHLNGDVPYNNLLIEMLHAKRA

Steroidogenic factor 1 = Steroidogenic factor 1 (Homo sapiens, UniProt Q13285); assay: Counterscreen for inverse agonists of the liver receptor homolog-1 (LRH-1; NR5A2): Luminescence-based cell-based high throughput dose response assay to identify inverse agonists of the Steroidogenic Factor 1 Nuclear Receptor (SF1; NR5A1).; assay type: functional
Steroidogenic factor 1, sequence (Q13285 whole entry): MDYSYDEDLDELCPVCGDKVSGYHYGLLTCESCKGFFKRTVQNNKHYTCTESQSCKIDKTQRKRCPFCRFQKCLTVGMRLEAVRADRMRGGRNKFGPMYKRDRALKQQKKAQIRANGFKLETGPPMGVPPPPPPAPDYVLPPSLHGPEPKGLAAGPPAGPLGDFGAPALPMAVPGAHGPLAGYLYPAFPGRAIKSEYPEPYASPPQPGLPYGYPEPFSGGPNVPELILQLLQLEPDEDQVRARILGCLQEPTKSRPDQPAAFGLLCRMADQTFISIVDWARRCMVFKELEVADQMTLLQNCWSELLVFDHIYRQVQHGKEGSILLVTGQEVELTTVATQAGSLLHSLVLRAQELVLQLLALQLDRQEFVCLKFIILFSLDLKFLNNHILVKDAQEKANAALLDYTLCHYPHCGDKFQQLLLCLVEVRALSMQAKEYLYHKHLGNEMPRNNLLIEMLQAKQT

[12] = Counterscreen for activators of the function of SWI/SNF related, matrix associated, actin dependent regulator of chromatin, subfamily a, member 2 (SMARCA2, BRM): Luminescence-based cell-based high throughput dose response assay to identify non-selective compounds using the VP16 reporter assay.; assay type: functional
[13] = molecular target: SWI/SNF-related matrix-associated actin-dependent regulator of chromatin subfamily A member 2 (Homo sapiens, UniProt P51531); assay: Luminescence-based cell-based high throughput dose response assay to identify activators of the function of SWI/SNF related, matrix associated, actin dependent regulator of chromatin, subfamily a, member 2 (SMARCA2, BRM).; assay type: functional
SWI/SNF-related matrix-associated actin-dependent regulator of chromatin subfamily A member 2, sequence (P51531 whole entry): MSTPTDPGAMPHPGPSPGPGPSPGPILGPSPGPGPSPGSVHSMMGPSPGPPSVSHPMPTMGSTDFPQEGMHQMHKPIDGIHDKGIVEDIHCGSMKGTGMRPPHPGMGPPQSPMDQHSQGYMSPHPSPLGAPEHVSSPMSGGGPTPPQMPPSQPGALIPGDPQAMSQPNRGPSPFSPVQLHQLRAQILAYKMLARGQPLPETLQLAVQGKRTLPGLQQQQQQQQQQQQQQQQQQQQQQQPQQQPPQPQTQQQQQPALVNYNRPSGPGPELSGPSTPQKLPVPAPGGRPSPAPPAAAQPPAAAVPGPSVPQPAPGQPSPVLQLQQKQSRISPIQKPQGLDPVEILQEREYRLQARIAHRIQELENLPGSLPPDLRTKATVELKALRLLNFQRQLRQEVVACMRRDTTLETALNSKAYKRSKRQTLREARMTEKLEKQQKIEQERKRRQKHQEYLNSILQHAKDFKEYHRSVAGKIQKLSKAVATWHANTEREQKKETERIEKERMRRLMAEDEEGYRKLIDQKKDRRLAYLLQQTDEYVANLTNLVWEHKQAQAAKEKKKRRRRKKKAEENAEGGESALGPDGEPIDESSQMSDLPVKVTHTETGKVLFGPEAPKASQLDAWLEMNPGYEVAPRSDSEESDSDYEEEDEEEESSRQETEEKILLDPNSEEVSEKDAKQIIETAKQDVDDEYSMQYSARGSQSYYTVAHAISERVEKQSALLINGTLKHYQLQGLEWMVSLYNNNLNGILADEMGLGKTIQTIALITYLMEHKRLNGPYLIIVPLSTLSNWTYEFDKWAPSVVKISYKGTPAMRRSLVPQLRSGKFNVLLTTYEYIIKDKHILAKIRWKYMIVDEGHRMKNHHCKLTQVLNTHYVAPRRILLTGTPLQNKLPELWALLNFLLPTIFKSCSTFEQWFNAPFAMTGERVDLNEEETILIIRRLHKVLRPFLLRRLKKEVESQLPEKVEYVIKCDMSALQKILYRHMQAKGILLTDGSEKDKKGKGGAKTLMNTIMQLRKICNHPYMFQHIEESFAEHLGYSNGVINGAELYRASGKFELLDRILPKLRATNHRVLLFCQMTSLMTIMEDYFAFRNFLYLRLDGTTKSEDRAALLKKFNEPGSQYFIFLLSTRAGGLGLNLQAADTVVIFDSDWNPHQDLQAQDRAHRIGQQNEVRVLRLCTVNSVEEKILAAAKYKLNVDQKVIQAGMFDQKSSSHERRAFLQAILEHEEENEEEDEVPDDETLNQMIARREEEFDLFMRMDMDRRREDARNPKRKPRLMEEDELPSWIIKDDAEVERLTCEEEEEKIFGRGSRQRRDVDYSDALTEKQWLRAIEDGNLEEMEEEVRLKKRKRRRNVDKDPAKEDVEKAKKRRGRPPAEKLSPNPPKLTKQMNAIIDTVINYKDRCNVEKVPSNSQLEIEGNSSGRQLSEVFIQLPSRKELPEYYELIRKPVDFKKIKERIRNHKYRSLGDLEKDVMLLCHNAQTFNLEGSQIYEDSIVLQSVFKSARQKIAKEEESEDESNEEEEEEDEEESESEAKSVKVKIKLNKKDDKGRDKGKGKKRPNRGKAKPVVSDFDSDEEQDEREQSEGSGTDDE

[14] = molecular target: T2, Low molecular weight phosphotyrosine protein phosphatase (Homo sapiens, UniProt P24666); assay type: functional; conditions: read-out: IC50_Mean
T2 sequence (P24666 whole entry): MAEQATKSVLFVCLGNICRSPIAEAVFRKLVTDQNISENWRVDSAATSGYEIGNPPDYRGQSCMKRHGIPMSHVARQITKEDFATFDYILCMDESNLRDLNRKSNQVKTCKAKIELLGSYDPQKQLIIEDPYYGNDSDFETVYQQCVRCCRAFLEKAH

[15] = molecular target: T2, Low molecular weight phosphotyrosine protein phosphatase; assay type: functional; conditions: read-out: IC50_Mean; remark: listed apart in the source
Caspase-6 = molecular target: T3, Caspase-6 (Homo sapiens, UniProt P55212); assay: human caspase-6 inhibitors, dose response, biochemical, VEID-R110 fluorescence, cherry-pick (AID 720632)
T3 sequence (P55212 whole entry): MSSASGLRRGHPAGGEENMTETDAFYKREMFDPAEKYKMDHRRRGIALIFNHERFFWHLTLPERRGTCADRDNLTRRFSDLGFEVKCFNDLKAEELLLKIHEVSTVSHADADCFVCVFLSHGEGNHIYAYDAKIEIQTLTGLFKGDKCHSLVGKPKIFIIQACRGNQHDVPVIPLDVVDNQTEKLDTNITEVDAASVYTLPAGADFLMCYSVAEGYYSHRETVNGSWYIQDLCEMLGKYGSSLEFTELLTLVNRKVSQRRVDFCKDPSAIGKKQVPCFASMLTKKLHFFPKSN

[16] = Luminescence Cell-Based Dose Retest to Confirm Inhibitors of Cancer Stem Cells. [Related pubchem assays (depositor defined):AID2717, AID2721]; assay type: functional; conditions: Homo sapiens
Paired box protein Pax-8 = Paired box protein Pax-8 (Homo sapiens, UniProt Q06710); assay: inhibitors of PAX8-driven TPO luciferase reporter, dose response, RMG-I cells, cherry-pick (AID 687027); assay type: functional, cell-based;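 further: luciferase reporter driven by Pax8 target thyroperoxidase promoter measured by SteadyGlo luminescence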
Paired box protein Pax-8, sequence (Q06710 whole entry): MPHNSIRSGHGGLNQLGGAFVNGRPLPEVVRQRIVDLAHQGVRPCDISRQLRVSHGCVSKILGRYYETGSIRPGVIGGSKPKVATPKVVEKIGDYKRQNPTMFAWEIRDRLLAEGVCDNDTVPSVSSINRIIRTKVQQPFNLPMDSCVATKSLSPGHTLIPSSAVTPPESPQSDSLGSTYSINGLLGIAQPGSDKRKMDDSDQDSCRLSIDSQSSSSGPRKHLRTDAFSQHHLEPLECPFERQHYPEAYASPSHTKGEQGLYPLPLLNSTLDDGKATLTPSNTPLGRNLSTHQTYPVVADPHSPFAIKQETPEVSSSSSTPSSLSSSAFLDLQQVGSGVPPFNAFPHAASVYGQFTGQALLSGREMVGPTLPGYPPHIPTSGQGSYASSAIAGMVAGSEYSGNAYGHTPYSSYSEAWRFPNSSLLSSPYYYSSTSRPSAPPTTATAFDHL

[17] = miR-122 activators in hepatoma reporter cells, dose response, cell-based, Huh7 psiCHECK-miR122, Renilla luciferase, cherry-picked (AID 651956); assay type: functional;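 further: huh7 hepatoma cells stably carrying a psiCHECK-2 miR-122 sensor plasmid; renilla luciferase signal reporting endogenous miR-122 activity after 48 h compound exposure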
[18] = HEK293T cytotoxicity, dose response, cytotoxicity control for miR-122 modulator project, cell-based, activator set, cherry-pick (AID 720690); assay type: functional;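 further: HEK293T human cells scored for general mammalian cytotoxicity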
[19] = molecular target: T4, Microphthalmia-associated transcription factor (Homo sapiens, UniProt O75030); assay: TRPM1 promoter luciferase signal decrease, dose response, MITF inhibitor project, cell-based, SK-MEL-5, cherry-picked, set 3 (AID 493073); assay type: functional
T4 sequence (O75030 whole entry): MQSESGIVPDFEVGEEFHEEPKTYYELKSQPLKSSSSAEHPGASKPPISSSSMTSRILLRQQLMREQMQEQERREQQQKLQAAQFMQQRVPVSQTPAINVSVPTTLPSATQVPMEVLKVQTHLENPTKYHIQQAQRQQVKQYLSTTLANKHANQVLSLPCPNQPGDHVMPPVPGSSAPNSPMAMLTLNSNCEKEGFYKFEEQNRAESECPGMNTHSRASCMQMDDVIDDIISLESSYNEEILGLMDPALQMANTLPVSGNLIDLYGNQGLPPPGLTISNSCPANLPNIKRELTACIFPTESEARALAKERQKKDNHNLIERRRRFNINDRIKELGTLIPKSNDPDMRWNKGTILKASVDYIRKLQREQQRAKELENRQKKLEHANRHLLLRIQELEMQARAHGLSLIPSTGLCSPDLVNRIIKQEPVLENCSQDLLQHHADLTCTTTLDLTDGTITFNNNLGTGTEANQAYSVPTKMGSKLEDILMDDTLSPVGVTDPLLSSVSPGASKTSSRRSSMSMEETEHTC

[20] = HEK293T cytotoxicity, dose response, cytotoxicity control for miR-122 modulator project, cell-based, inhibitor set, cherry-pick, set 2 (AID 720697); assay type: functional
[21] = CRF-BP/CRF-R2 complex antagonists, dose response, cell-based, uHTS hits, 384-well (AID 651639); assay type: functional, Homo sapiens; conditions: read-out: IC50_Mean
Leucine aminopeptidase = molecular target: T5, Leucine aminopeptidase (Plasmodium falciparum 3D7, UniProt Q8IL11); assay: P. falciparum M17LAP inhibitors, primary screen, biochemical, fluorogenic H-Leu-NHMec substrate, 1536-well (AID 1619); assay type: functional
T5 sequence (Q8IL11 whole entry): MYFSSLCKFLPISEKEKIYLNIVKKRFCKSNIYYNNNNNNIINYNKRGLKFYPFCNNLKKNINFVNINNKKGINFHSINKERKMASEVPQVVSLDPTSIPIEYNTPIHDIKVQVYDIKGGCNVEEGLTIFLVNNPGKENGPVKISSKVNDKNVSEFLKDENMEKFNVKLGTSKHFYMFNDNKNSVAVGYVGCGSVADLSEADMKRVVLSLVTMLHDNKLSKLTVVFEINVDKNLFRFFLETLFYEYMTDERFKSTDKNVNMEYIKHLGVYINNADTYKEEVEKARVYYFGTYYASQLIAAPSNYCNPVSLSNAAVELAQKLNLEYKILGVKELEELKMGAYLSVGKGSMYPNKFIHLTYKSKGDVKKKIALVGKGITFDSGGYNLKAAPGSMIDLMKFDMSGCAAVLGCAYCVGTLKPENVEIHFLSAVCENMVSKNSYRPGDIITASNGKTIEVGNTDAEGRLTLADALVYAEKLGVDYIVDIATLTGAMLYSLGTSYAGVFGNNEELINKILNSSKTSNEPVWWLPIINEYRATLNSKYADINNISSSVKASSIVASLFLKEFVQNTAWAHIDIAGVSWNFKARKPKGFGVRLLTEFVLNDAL

[22] = molecular target: T6, Corticotropin-releasing factor receptor 2/Corticotropin-releasing factor-binding protein (Homo sapiens, UniProt P24387+Q13324); assay: Dose Response confirmation of uHTS hits for small molecule antagonists of the CRF-binding protein and CRF-R2 receptor complex.; assay type: functional; conditions: read-out: IC50_Mean
T6 sequence (Q13324 whole entry): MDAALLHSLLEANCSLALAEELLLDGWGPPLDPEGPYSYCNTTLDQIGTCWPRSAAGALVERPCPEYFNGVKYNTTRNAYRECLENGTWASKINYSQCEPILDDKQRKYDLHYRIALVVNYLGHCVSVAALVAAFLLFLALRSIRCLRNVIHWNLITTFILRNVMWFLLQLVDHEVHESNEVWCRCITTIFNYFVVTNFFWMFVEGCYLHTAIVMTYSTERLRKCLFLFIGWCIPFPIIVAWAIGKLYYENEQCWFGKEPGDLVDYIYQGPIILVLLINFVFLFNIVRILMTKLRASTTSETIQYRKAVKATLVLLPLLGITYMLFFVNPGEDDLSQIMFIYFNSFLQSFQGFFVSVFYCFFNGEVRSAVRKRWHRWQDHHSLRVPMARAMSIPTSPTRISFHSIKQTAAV
T6 sequence (P24387 whole entry): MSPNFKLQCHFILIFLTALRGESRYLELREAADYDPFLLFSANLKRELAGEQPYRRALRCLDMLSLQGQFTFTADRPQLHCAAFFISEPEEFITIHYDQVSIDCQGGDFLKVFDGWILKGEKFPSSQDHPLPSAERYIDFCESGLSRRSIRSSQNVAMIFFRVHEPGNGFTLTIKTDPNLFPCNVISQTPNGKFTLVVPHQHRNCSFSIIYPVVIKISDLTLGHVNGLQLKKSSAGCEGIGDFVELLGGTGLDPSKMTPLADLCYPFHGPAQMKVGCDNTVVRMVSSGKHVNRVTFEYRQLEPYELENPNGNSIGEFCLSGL

[23] = molecular target: T6, Corticotropin-releasing factor receptor 2/Corticotropin-releasing factor-binding protein; assay: activators of CRF receptor 2 with binding protein – uHTS hits, confirmation (AID 602473); assay type: functional; conditions: read-out: EC50_Mean

Beta-lactamase (Salmonella choleraesuis (strain SC-B67), UniProt Q5J463), sequence (Q5J463 whole entry): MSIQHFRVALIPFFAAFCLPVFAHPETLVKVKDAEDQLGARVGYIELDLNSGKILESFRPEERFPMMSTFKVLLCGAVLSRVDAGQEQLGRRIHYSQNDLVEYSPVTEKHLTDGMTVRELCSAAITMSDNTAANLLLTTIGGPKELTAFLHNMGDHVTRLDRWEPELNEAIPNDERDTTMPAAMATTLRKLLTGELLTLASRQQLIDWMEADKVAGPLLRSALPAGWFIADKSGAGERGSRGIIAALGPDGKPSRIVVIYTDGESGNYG

COc1ccccc1-c1csc(-n2ncc(C#N)c2N)n1
IC50 (Beta-lactamase [1]): > 59.6 µM (inactive)
IC50 [2]: > 66.6 µM (inactive)
IC50 [3]: 6.71 µM (active)
IC50 (Beta-lactamase [4]): > 59.6 µM (inactive)

Cc1cc(Cl)c2oc(C(=O)N(C)CCCCN3CCOCC3)c(C)c2c1
AC50 (Vero): 30.2 µM (active)

CC(C)(C)NCC(=Cc1ccccc1)C(=O)c1ccccc1
AC50 [5]: 11.1 µM (active)
AC50 [6]: 6.44 µM (active)
IC50 [7]: 2.91 µM (active)
AC50 [8]: 4.51 µM (active)
IC50 [9]: 10.4 µM (inactive)

C/C(=N\Nc1cc(C(F)(F)F)ccc1Cl)c1ccncc1
IC50 [10]: 35.9 µM (inactive)
IC50 [11]: 26.2 µM (inactive)
IC50 (Steroidogenic factor 1): 12 µM (inactive)

OCC1OC(n2cnc3c(SCc4ccccc4)ncnc32)C(O)C1O (stereo unspecified)
EC50 [12]: > 91.3 µM (inactive)
EC50 [13]: > 91.3 µM (inactive)

Cc1cc(=O)oc2c(C)c(OCC(=O)NC3CC(C)(C)NC(C)(C)C3)ccc12
IC50 [10]: 35.9 µM (inactive)
IC50 [11]: 35.9 µM (inactive)
IC50 (Steroidogenic factor 1): 35.9 µM (inactive)

O=C(N/N=C/c1ccc(OC(=O)c2cccc(F)c2)cc1)c1cccnc1
IC50 [14]: 15.4 µM (active)
IC50 [15]: 14.4 µM (active)

O=C(CN1CCN(c2ccccc2F)CC1)c1ccc2cc[nH]c2c1
IC50 [14]: 14.6 µM (active)
IC50 [15]: 5.49 µM (active)

Cc1ccc(NC(=O)CN(C)C(=O)Cn2ncc(Cl)c(Cl)c2=O)cc1
AC50 (Caspase-6): 5.9 µM (active)
AC50 [16]: 4.54 µM (active)
AC50 (Paired box protein Pax-8): 3.57 µM (active)
AC50 [17]: 4.2 µM (active)
AC50 [18]: 3.57 µM (active)
AC50 [19]: 9.16 µM (active)
IC50 [9]: 4.34 µM (active)
AC50 [20]: 8.04 µM (active)

Cc1ccc(S(=O)(=O)N(CC(=O)Nc2ccccc2C(=O)O)c2cccc(Cl)c2C)cc1
IC50 [7]: 2.15 µM (active)
IC50 [21]: 15.6 µM (active)
IC50 (Leucine aminopeptidase): 24.7 µM (active)
IC50 [22]: 41.1 µM (active)
EC50 [23]: 41.2 µM (active)

CC(C)c1ccc(Nc2ncc3c(n2)CCN(C(=O)Nc2ccc(F)c(Cl)c2)C3)cc1
AC50 (Vero): 21 µM (active)
